Patent US20090286713A9, “Collagen Receptor I-Domain Binding Modulators” (Biotie Therapies Corporation, priority 2005, published 2009)

Key:
α1 I-domain = molecular target: T1, α1 I-domain (Homo sapiens, UniProt P56199); assay: Solid-phase binding assay, α1 I-domain binding to type I collagen; details: at 0.05 mM concentration; FIG. 9
T1 construct: corresponding to amino acids 123-338 of the whole α1 integrin; made in house; host or cells: E. coli BL21 (pGEX-4T-3)
T1 sequence (P56199 151-366): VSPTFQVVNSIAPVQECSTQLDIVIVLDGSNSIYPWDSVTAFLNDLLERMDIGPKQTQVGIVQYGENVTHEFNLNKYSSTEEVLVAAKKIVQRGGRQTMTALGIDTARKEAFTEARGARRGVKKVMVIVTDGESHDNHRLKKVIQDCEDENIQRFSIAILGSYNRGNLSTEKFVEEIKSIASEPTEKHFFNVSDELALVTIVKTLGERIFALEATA
Experimental: Solid-phase binding assay for α1-domains—The coating of a 96-well high binding microtiter plate (Nune) was done by exposure to 0.1 ml of PBS containing 5 μg/cm2 (15 μg/ml) collagens or 20 μg/ml triple-helical peptides overnight at +4° C. Blank wells were coated with 1:1 solution of 0.1 ml Delfia® Diluent II (Wallac) and PBS. Residual protein absorption sites on all wells were blocked with 1:1 solution of 0.1 ml Delfia® Diluent II (Wallac) and PBS. Recombinant proteins (αI-GST) were added to the coated wells at a desired concentration in Delfia® Assay Buffer and incubated for 1 h at room temperature. Europium-labelled anti-GST antibody (Wallac) was then added (typically 1:1000), and the mixture was incubated for 1 h at room temperature. All incubations mentioned above were done in the presence of 2 mM MgCl2. Delfia® enhancement solution (Wallac) was added to each well and the Europium signal was measured by time-resolved fluorometry (Victor2 multilabel counter, Wallac). At least three parallel wells were analyzed. In some cases some what modified solid-phase assay was used and it was performed according Tulla et al, 2001. It uses anti-GST and Europium-labelled protein G instead of Europium-labelled anti-GST antibody.
The tetracyclic Streptomyces compounds synthesised in Example 1, where screened for inhibition of collagen binding to α1 and α2 I-domains, using the α I-domain assay described in Example 4. […] L3015 could inhibit the binding of both α1I and α2 I-domains to type I and type IV collagen (FIG. 6B).
Furthermore α1I and α2 I-domain binding to collagen I in the presence of lovastatin was tested in the europium-labelled anti-GST assay described in Example 4. Lovastatin is an allosteric inhibitor of leukocyte integrin α I-domains (e.g. αL I-domain), and the binding site of lovastatin represents an optional binding site for possible modulators. […] These biological tests gave further evidence that collagen receptor α I-domains are inhibited by direct blocking of the MIDAS surface by tetracyclic polyketide.

[1] = molecular target: T2, CHO cells expressing α2β1 integrin (Homo sapiens, UniProt P05556+P17301); assay: Cell adhesion assay, CHO-α2 cells on collagen type I; assay type: cell-based, Chinese Hamster; details: CHO cells expressing α2β1; FIG. 10A; read-out: EC50 of cell adhesion to type I collagen
T2 sequence (P17301 1-1181): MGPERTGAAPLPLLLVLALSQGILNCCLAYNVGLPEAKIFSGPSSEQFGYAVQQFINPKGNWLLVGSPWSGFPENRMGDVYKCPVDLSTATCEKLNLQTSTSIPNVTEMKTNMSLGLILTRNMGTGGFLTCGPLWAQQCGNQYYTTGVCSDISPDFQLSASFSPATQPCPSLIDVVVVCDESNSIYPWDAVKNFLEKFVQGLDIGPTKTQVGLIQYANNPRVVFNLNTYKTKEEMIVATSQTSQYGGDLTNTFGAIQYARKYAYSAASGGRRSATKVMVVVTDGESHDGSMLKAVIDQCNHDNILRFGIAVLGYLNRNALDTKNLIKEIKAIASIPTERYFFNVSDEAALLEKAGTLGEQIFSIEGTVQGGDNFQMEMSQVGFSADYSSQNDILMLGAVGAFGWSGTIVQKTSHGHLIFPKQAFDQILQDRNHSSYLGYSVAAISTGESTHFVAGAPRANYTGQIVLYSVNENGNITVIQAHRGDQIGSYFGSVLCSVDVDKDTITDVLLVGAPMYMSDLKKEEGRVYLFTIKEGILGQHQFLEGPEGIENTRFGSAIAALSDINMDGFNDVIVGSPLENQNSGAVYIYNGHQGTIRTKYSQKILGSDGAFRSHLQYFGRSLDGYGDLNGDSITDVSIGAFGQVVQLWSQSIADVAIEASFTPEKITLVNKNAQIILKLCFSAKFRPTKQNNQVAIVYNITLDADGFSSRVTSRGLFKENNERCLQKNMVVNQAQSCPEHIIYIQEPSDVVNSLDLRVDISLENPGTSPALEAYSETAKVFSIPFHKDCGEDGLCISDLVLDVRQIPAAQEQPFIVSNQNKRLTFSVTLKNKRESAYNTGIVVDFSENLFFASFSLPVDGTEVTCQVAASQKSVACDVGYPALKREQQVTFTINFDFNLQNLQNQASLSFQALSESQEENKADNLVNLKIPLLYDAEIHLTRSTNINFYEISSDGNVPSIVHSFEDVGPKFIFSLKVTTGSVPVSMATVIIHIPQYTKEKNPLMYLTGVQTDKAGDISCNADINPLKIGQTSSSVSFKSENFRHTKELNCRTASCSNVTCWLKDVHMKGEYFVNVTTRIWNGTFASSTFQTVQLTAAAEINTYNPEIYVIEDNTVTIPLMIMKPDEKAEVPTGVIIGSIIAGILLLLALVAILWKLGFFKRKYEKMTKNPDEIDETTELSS
Experimental: (§1) Chinese Hamster Ovary (CHO) cell clone expressing wild type α2 integrin was used in cell adhesion assay. Cells were suspended in serum free medium containing 0.1 mg/ml cycloheximide (Sigma) and the compounds were preincubated with the cells prior to transfer to the wells. Cells (150000/well) were allowed to attach on collagen type I coated wells (in the presence and absence of inhibitor compounds) for 2 h at +37° C. and after that non-adherent cells were removed. Fresh serum free medium was added and the living cells were detected using a cell viability kit (Roche) according to the manufacturers protocol.
(§2) For this purpose CHO cells were transfected to express α2β1 integrin on their surface as their only collagen receptor.

[2] = molecular target: T3, CHO cells expressing α2β1 integrin (Homo sapiens, UniProt P17301); assay: as above; assay type: cell-based, Chinese Hamster; details: FIG. 10A, 10B
T3 sequence (P17301 1-1181): T2 sequence (P17301 1-1181)
Experimental: as §1, §2

inhibition of collagen I binding of α1I (α1 I-domain): could inhibit
EC50 [1]: ~20 µM
inhibition of cell adhesion to collagen type I (in words) [2]: potent inhibitor
Structure (SMILES): COC(=O)c1c(C(C)C)cc(O)c2c(O)c3c(c(O)c12)C(=O)c1cccc(O)c1C3=O [Compound L3009, methyl 4,5,7,12-tetrahydroxy-2-methylethyl)-6,11-dioxonaphthacenecarboxylate]
